Source: paper PMC8518494 (Angewandte Chemie (International Ed. in English), 2021)
Like-named read-outs stand apart in the source and are kept apart here.

Assays:
Y27A-TbpA = molecular target: T1, Y27A-TbpA (Escherichia coli, UniProt P31550, Y27A); experiment: Nanopore recording of ligand binding to Y27A-TbpA inside ClyA-AS
T1 sequence (P31550 19-327 Y27A): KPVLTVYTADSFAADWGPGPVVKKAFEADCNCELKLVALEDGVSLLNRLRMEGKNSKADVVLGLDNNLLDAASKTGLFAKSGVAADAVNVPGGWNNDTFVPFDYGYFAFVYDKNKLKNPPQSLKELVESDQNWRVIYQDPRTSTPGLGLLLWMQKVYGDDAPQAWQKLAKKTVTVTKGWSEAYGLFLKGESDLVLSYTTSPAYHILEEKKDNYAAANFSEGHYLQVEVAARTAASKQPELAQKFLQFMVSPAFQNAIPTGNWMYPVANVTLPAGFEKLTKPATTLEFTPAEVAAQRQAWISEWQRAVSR

WT-TbpA [1] = molecular target: T2, WT-TbpA (Escherichia coli, UniProt P31550)
T2 sequence (P31550 19-327): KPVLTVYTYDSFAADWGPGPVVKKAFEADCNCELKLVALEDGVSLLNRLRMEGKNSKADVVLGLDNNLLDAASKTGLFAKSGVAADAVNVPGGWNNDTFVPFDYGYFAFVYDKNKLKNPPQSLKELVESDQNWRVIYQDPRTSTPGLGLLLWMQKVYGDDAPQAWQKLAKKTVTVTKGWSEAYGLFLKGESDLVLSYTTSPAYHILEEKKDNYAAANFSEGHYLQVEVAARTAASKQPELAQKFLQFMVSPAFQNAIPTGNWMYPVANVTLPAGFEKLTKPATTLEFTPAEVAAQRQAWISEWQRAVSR

WT-TbpA [2] = molecular target: T2, WT-TbpA; experiment: biochemical

SMILES: Cc1ncc(C[n+]2csc(CCO[P@](=O)(O)OP(=O)(O)O)c2C)c(N)n1 [ThDP, thiamine diphosphate]
- Kd (Y27A-TbpA): ~2000 nM
- ΔIres%(ThDP1) (Y27A-TbpA; 2 μM ThDP added to cis, first type of event): 4.0±0.1%
- ΔIres%(ThDP2) (Y27A-TbpA; 2 μM ThDP added to cis, second type of event): 7.2±0.1%
- capture frequency for both events (Y27A-TbpA; 2 μM ThDP, cis): 6.5 ± 3 µM⁻¹ s⁻¹
- koff (Y27A-TbpA; read-out: k off(ThDP1)): 2.9 ± 0.4 s⁻¹
- koff (Y27A-TbpA; read-out: k off(ThDP2)): 1.7 ± 0.3 s⁻¹

SMILES: Cc1ncc(C[n+]2csc(CCOP(=O)(O)O)c2C)c(N)n1 [ThMP, thiamine monophosphate]
- ΔIres%(ThMP1) (Y27A-TbpA; 0.1 μM ThMP added to cis, first kind of bound event): 4.8±0.2%
- ΔIres%(ThMP2) (Y27A-TbpA; 0.1 μM ThMP added to cis, second kind of bound event): 7.3±0.3%
- kon (Y27A-TbpA; read-out: capture frequency (an approximate k on) for both events): 1.6e+07 ± 4e+06 M⁻¹ s⁻¹
- koff (Y27A-TbpA; read-out: k off(ThMP1)): 2.3 ± 0.4 s⁻¹
- koff (Y27A-TbpA; read-out: k off(ThMP2)): 2 ± 0.2 s⁻¹

SMILES: Cc1ncc(C[n+]2csc(CCO)c2C)c(N)n1 [thiamine, Thiamine]
- ΔIres%(thiamine) (WT-TbpA [1]; WT-TbpA 15 nM cis, 4 μM thiamine added to cis, −45 mV, 150 mM NaCl, 15 mM Tris.HCl pH 7.5): 3.1±0.6%
- Ires%(thiamine), closed state (WT-TbpA [1]; WT-TbpA, thiamine-bound state): 45.9±0.8%
- effect of addition of thiamine to the trans solution (WT-TbpA [1]; thiamine added to trans, WT-TbpA in cis): did not elicit additional current blockades
- Kd (WT-TbpA [2]): 67 ± 5 nM
- Kd (Y27A-TbpA; Kd app(cis), thiamine added to cis, Hill curve fit to bound fraction): 23.1 ± 0.1 nM
- Kd (Y27A-TbpA; Kd app(trans), thiamine added to trans): 91.1 ± 0.4 nM
- difference in apparent Kd between cis and trans (Y27A-TbpA; Y27A-TbpA): 4 fold
- difference in k on rates between cis and trans (Y27A-TbpA; Y27A-TbpA): 4 fold
- ΔIres%(thiamine) (Y27A-TbpA; Y27A-TbpA 15 nM cis, 4 μM thiamine added to cis, −45 mV): 6.9±0.6%
- Ires%(thiamine), closed state (Y27A-TbpA; Y27A-TbpA, thiamine-bound state): 48.4±0.9%
- koff (Y27A-TbpA; read-out: k off(cis)): 1.8 ± 0.3 s⁻¹
- koff (Y27A-TbpA; read-out: k off(trans)): 1.7 ± 0.1 s⁻¹
- kon (Y27A-TbpA; read-out: k on(cis)): 6.9e+07 ± 9e+06 M⁻¹ s⁻¹
- kon (Y27A-TbpA; read-out: k on(trans)): 1.4e+07 ± 3e+06 M⁻¹ s⁻¹
- effect of addition of thiamine to the trans chamber (Y27A-TbpA; thiamine added to trans, Y27A-TbpA in cis): induced thiamine events
- Hill coefficient (Y27A-TbpA; thiamine, cis and trans): 1
